Measurements as given in patent publication US4459227A, “Para-hydroxyphenylhydrazines as in situ precursors of iminoquinones and quinones” (Duke University, priority 1981, dated 1984).

What was measured:
liver = details: cited from earlier work
phage (viral) infections = details: tissue cultures, p-benzoquinone generated in situ; cited from earlier work
fungi = details: cited from earlier work
Salmonella typhosa = details: 1911; cited from earlier work
[1] = Spectral study of rearrangement/reactions with nucleophiles, reducing and oxidizing agents; type: physicochemical; details: for Final Maximum (nm): pH 8-9, ten-fold excess
Description: In order to characterize the products of hydrolysis of AA-CHP's, the hydrolysis of Leu-CHP by LAP was studied by absorption spectrophotometry. […] This was also true for the new maximum at 350 nm and for a second new "maximum" which appeared as a low, broad "peak" merging with 350 peak and centered at about 400 nm. However, by 22 minutes (not shown) the absorbance at 300 and 400 nm had diminished in intensity while the 350 maximum continued to increase, albeit at a slower rate. At pH 7.0 (FIG. 8B), the absorbance at 300 nm continued to slowly increase in intensity even up to 90 minutes after dissolving CHP-OEt (0.2 mg) in DMSO (0.02 ml) into 0.05M Phosphate buffer (3 ml). Furthermore, a second maximum at 350 nm developed but it remaind smaller in intensity than the 300 nm peak.
Table 2 summarizes the results of several separate experiments involving the reactions of CHP-OEt, CHA-OEt, pIQ-OEt and pBQ (0.5-1.0 mM) with various nucleophiles (lysine, 3-MPA) reducing agents (NaBH4, 3-MPA) and oxidizing agents (NaIO4, O2) in ten-fold molar excess in Tris-HCl buffer (0.05M, pH 9.0).
In these studies, CHP-OEt, CHA-OEt and pBQ* were all pure compounds, thus, their absorption could be unequivocably assigned, pIQ-OEt was generated by the autoxidation of CHA-OEt in solution and its presence was noted by the appearance of one absorbance maximum at 400 nm and the development of a distinct yellow color to a previously clear solution of CHA-OEt. […] On the other hand, there was a dissimilarity between the spectra of CHP-OEt and CHA-OEt. CHA-OEt was oxidized by O2 or NaIO4 to the pIQ-OEt with a λmax =400 nm whereas NaIO4 had no effect on the rate or nature of spectral change that occurred when . . .

blue-green algae = details: cited from earlier work

Compound: CC(=O)N=C1C=CC(=O)C=C1 [N-acetyl-p-iminobenzoquinone]
- toxic effects in the liver (liver): responsible for the toxic effects in the liver

Compound: Oc1ccc(O)cc1 [p-benzohydroquinone]
- prevention of phage (viral) infections (phage (viral) infections): prevent phage (viral) infections from proliferating

Compound: O=C1C(Cl)=C(Cl)C(=O)C(Cl)=C1Cl [chloranil, 2,3,5,6-tetrachloro-1,4-benzoquinone]
- antifungal properties (fungi): marked antifungal properties

Compound: O=C1C=CC(=O)C=C1 [pBQ, p-Benzoquinone, reference compound]
- bactericidal activity (Salmonella typhosa): potent bactericidal substance
- Final Maximum (nm) ([1]; compound added: 3-MPA): 300 nm
- Final Maximum (nm) ([1]; compound added: Lysine): 350 nm
- Initial Maximum (nm) ([1]; pH 8-9): 240 nm
- peak appearing only after several hours with 3-MPA ([1]; ten-fold excess 3-MPA, pH 9.0): 350 nm
- initial peak with lysine (rapidly diminished) ([1]; ten-fold excess lysine, pH 9.0): 300 nm

Compound: O=C1C(Cl)=C(Cl)C(=O)c2ccccc21 [2,3-dichloro-1,4-naphthoquinone]
- inhibition of blue-green algae (blue-green algae): inhibited
